This passage reports IC50 results from paper PMC11491390, “Inhibition of HCN1 currents by norquetiapine, an active metabolite of the atypical anti-psychotic drug quetiapine” (Frontiers in Pharmacology, 2024).

Each structure is given as a SMILES string.

In this experiment the target is T1, HCN1 (Mus musculus, UniProt O88704).
T1 construct: full-length HCN1
As to the kind of experiment: two-electrode voltage clamp, channel expressed in Xenopus laevis oocytes (shift in V1/[…]). The experiment is classed as cell-based. In general terms: In two-electrode clamp one electrode senses voltage and the other passes current.

T1 sequence (O88704 whole entry): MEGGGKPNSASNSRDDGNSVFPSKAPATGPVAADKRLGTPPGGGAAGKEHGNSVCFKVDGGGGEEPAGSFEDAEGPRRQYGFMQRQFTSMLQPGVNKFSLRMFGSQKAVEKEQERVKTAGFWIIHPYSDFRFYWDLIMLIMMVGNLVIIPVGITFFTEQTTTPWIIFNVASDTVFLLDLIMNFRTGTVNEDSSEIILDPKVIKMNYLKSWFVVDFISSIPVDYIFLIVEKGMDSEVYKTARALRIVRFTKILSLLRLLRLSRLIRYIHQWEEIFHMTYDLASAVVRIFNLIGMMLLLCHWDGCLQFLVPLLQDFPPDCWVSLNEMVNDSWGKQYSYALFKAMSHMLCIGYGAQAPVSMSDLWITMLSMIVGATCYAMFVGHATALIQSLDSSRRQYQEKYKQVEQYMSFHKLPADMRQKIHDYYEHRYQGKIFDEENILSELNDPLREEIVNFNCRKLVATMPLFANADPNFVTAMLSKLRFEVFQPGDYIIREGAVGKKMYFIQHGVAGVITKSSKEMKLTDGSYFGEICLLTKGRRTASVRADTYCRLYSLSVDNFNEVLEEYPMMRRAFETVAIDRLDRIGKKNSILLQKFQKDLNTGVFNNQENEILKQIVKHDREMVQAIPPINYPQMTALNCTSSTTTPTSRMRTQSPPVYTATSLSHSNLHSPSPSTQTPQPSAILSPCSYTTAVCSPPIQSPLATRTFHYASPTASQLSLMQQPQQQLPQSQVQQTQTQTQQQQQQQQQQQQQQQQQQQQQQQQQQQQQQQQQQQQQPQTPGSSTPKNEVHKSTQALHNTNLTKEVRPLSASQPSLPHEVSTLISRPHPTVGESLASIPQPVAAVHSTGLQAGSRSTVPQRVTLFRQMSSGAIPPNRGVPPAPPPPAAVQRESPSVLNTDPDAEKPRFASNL

Broadly, the IC50 is the concentration at which inhibition is half-maximal. `c1ccc2c(c1)N=C(N1CCNCC1)c1ccccc1S2` [NQTP, norquetiapine]: the IC50 came out at 13.9 ± 0.8 µM.
